Measurements from patent US20250145585A1, “HETEROCYCLIC INHIBITORS OF IGF-1R FOR TREATMENT OF DISEASE” (HORIZON THERAPEUTICS IRELAND DAC, priority 2023, published 2025).

Target: T1, IGF-1R (Homo sapiens, UniProt P08069)
T1 construct: expressed in transfected cells
Assay: Example B-2: IGF-1R Assay (PathHunter cell lines, EC80 agonist challenge, chemiluminescent detection)
Type: cell-based
Details: PathHunter cells, compound 60 minutes at 37° C., EC80 agonist 3 hours; read-out: IC50, Biological Activity against IGF-1R (Table B2)
Outline: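 PathHunter cells were pre-incubated with compound for 60 min at 37° C (1% vehicle), then challenged with EC80 agonist for 3 h at room temperature. Chemiluminescent detection after 1 h gave % inhibition relative to EC80 and vehicle controls, from which IC50 was derived.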

T1 sequence (P08069 31-1367): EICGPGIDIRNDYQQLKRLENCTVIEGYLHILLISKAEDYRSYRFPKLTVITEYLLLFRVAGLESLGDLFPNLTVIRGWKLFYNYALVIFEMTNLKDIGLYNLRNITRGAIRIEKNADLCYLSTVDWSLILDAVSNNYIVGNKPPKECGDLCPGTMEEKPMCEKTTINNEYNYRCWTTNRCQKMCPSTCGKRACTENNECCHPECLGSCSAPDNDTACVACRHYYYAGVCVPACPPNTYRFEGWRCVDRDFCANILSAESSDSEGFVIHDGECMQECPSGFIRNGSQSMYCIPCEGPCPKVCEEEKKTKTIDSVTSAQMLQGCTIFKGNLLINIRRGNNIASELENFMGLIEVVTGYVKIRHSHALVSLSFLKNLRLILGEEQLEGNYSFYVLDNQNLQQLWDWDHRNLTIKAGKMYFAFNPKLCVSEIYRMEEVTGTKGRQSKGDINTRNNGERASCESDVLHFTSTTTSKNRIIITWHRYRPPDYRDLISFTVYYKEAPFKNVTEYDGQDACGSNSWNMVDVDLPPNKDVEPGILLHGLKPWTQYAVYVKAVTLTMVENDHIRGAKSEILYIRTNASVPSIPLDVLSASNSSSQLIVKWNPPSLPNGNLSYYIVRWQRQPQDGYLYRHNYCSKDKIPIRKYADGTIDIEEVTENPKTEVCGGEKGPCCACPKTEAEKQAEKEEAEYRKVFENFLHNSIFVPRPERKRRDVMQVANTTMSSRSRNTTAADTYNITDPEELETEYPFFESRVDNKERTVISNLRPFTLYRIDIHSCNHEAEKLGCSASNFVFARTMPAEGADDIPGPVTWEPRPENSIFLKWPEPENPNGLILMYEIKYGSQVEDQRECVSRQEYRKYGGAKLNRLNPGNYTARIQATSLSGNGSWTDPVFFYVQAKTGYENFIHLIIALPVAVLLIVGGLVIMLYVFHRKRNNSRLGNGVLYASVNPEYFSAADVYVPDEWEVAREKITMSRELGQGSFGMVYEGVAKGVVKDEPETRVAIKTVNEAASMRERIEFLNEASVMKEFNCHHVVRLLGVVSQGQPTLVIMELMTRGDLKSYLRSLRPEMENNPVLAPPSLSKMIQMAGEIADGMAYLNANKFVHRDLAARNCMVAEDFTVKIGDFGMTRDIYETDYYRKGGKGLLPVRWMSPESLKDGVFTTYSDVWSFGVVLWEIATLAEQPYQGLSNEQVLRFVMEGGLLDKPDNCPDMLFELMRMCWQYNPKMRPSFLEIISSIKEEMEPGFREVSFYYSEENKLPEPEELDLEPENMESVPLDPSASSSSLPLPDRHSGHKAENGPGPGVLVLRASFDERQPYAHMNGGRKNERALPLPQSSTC

| IC50 [nM] | Structure (SMILES) |
| --- | --- |
| ≤ 500 | CC1(C)C(=O)N(c2ccc(C(C)(C)C(F)(F)F)cc2)C(=O)N1Cc1ccnc2c1C(F)(F)C(=O)N2 [Compound 49, 1-((3,3-difluoro-2-oxo-2,3-dihydro-1H-pyrrolo[2,3-b]pyridin-4-yl)methyl)-5,5-dimethyl-3-(4-(1,1,1-trifluoro-2-methylpropan-2-yl)phenyl)imidazolidine-2,4-dione] |
| 2000 to 10000 | CN1C[C@@H](Nc2cc(CN3C(=O)N(c4ccc(S(=O)(=O)C(F)(F)F)cc4)C(=O)C3(C)C)ccn2)CC1=O [Compound 323, (S)-5,5-dimethyl-1-((2-((1-methyl-5-oxopyrrolidin-3-yl)amino)pyridin-4-yl)methyl)-3-(4-((trifluoromethyl)sulfonyl)phenyl) imidazolidine-2,4-dione] |
| > 10000 | CC1(C)C(=O)N(c2ccc3c(c2)N(C(=O)C2CC2)CC3)C(=O)N1Cc1ccnc(N[C@H]2[C@@H]3COC[C@@H]32)c1 [Compound 252, 1-((2-(((1R,5S,6r)-3-oxabicyclo[3.1.0]hexan-6-yl)amino)pyridin-4-yl)methyl)-3-(1-(cyclopropanecarbonyl)indolin-6-yl)-5,5-dimethylimidazolidine-2,4-dione] |
| ≤ 500 | C[C@@H](CC#N)Nc1cc(CN2C(=O)N(c3ccc4c(c3)N(S(C)(=O)=O)CC4(C)C)C(=O)C2(C)C)ccn1 [Compound 215, (S)-3-((4-((3-(3,3-dimethyl-1-(methylsulfonyl)indolin-6-yl)-5,5-dimethyl-2,4-dioxoimidazolidin-1-yl)methyl)pyridin-2-yl)amino)butanenitrile] |
| ≤ 500 | CC1(C)C(=O)N(c2ccc(C3(C(F)(F)F)CC3)cc2)C(=O)N1Cc1ccnc(NCc2nnc[nH]2)c1 [Compound 174, 1-((2-(((4H-1,2,4-triazol-3-yl)methyl)amino)pyridin-4-yl)methyl)-5,5-dimethyl-3-(4-(1-(trifluoromethyl)cyclopropyl)phenyl) imidazolidine-2,4-dione] |
| 500 to 2000 | CC(CS(C)(=O)=O)Nc1cc(CN2C(=O)N(c3ccc(C4(C(F)(F)F)CC4)cc3)C(=O)C2(C)C)ccn1 (centres unmarked) [Compound 140, 5,5-dimethyl-1-((2-((1-(methylsulfonyl)propan-2-yl)amino)pyridin-4-yl)methyl)-3-(4-(1-(trifluoromethyl)cyclopropyl)phenyl) imidazolidine-2,4-dione] |
| ≤ 500 | CC1(C)C(=O)N(c2ccc(C3(C(F)(F)F)CCC3)cc2F)C(=O)N1Cc1ccnc2c1CC(=O)N2 [Compound 59, 3-(2-fluoro-4-(1-(trifluoromethyl)cyclobutyl)phenyl)-5,5-dimethyl-1-((2-oxo-2,3-dihydro-1H-pyrrolo[2,3-b]pyridin-4-yl)methyl)imidazolidine-2,4-dione] |
| 2000 to 10000 | CC1(C)C(=O)N(c2ccc(OC(F)(F)F)c(Cl)c2)C(=O)N1Cc1ccnc2c1CC(=O)N2 [Compound 287, 3-(3-chloro-4-(trifluoromethoxy)phenyl)-5,5-dimethyl-1-((2-oxo-2,3-dihydro-1H-pyrrolo[2,3-b]pyridin-4-yl)methyl)imidazolidine-2,4-dione] |
| ≤ 500 | CC1(C)C(=O)N(c2ccc(C3(C(F)(F)F)CC3)cc2)C(=O)N1Cc1ccnc(NCc2ncccn2)c1 [Compound 177, 5,5-dimethyl-1-((2-((pyrimidin-2-ylmethyl)amino)pyridin-4-yl)methyl)-3-(4-(1-(trifluoromethyl)cyclopropyl)phenyl) imidazolidine-2,4-dione] |
| ≤ 500 | COC[C@@H](C)Nc1cc(CN2C(=O)N(c3ccc4c(c3)N(C)CC4(C)C)C(=O)C2(C)C)ccn1 [Compound 202, (R)-1-((2-((1-methoxypropan-2-yl)amino)pyridin-4-yl)methyl)-5,5-dimethyl-3-(1,3,3-trimethylindolin-6-yl)imidazolidine-2,4-dione] |
| ≤ 500 | CC(Nc1cc(CN2C(=O)N(c3ccc(C4(C(F)(F)F)CC4)cc3)C(=O)C2(C)C)ccn1)c1cnccn1 (centres unmarked) [Compound 168, 5,5-dimethyl-1-((2-((1-(pyrazin-2-yl)ethyl)amino)pyridin-4-yl)methyl)-3-(4-(1-(trifluoromethyl)cyclopropyl)phenyl) imidazolidine-2,4-dione] |
| ≤ 500 | CC1(C)C(=O)N(c2ccc(C3(C(F)(F)F)CC3)cc2)C(=O)N1Cc1ccnc(NCC2(C#N)CC2)c1 [Compound 160, 1-(((4-((5,5-dimethyl-2,4-dioxo-3-(4-(1-(trifluoromethyl)cyclopropyl)phenyl)imidazolidin-1-yl)methyl)pyridin-2-yl)amino)methyl)cyclopropane-1-carbonitrile] |
| ≤ 500 | CC(C)Cc1cn(S(C)(=O)=O)c2cc(N3C(=O)N(Cc4ccnc5c4CC(=O)N5)C(C)(C)C3=O)ccc12 [Compound 50, 3-(3-isobutyl-1-(methylsulfonyl)-1H-indol-6-yl)-5,5-dimethyl-1-((2-oxo-2,3-dihydro-1H-pyrrolo[2,3-b]pyridin-4-yl)methyl)imidazolidine-2,4-dione] |
| > 10000 | CN1C(=O)Cc2c(CN3C(=O)N(c4ccc(C5(C#N)CCC5)cc4)C(=O)C3(C)C)ccnc21 [Compound 65, 1-(4-(4,4-dimethyl-3-((1-methyl-2-oxo-2,3-dihydro-1H-pyrrolo[2,3-b]pyridin-4-yl)methyl)-2,5-dioxoimidazolidin-1-yl)phenyl)cyclobutane-1-carbonitrile] |
| > 10000 | CC1(C)C(=O)N(c2ccc(S(C)(=O)=O)cc2)C(=O)N1Cc1ccnc2c1CC(=O)N2 [Compound 62, 5,5-dimethyl-3-(4-(methylsulfonyl)phenyl)-1-((2-oxo-2,3-dihydro-1H-pyrrolo[2,3-b]pyridin-4-yl)methyl)imidazolidine-2,4-dione] |
| ≤ 500 | CC1(C)C(=O)N(c2ccc3c(c2)N(S(C)(=O)=O)CC32CCC2)C(=O)N1Cc1ccnc(NC2CCOCC2)c1 [Compound 211, 5,5-dimethyl-3-(1′-(methylsulfonyl)spiro[cyclobutane-1,3′-indolin]-6′-yl)-1-((2-((tetrahydro-2H-pyran-4-yl)amino)pyridin-4-yl)methyl)imidazolidine-2,4-dione] |
| ≤ 500 | CO[C@@H](C)CNc1cc(CN2C(=O)N(c3ccc4c(c3)N(S(C)(=O)=O)CC43CCC3)C(=O)C2(C)C)ccn1 [Compound 238, (S)-1-((2-((2-methoxypropyl)amino)pyridin-4-yl)methyl)-5,5-dimethyl-3-(1′-(methylsulfonyl)spiro[cyclobutane-1,3′-indolin]-6′-yl)imidazolidine-2,4-dione] |
| ≤ 500 | CCOC(=O)N1C(=O)Cc2c(CN3C(=O)N(c4ccc(C5(C(F)(F)F)CC5)cc4)C(=O)C3(C)C)ccnc21 [Compound 78, ethyl 4-((5,5-dimethyl-2,4-dioxo-3-(4-(1-(trifluoromethyl)cyclopropyl)phenyl)imidazolidin-1-yl)methyl)-2-oxo-2,3-dihydro-1H-pyrrolo[2,3-b]pyridine-1-carboxylate] |
| ≤ 500 | CC1(C)COc2cc(N3C(=O)N(Cc4ccnc5c4CC(=O)N5)C(C)(C)C3=O)ccc21 [Compound 35, 3-(3,3-dimethyl-2,3-dihydrobenzofuran-6-yl)-5,5-dimethyl-1-((2-oxo-2,3-dihydro-1H-pyrrolo[2,3-b]pyridin-4-yl)methyl)imidazolidine-2,4-dione] |
| 500 to 2000 | CC1(C)C(=O)N(c2ccc(S(=O)(=O)C(F)(F)F)cc2)C(=O)N1Cc1ccnc(N[C@H]2CCOC[C@@H]2F)c1 [Compound 334, 1-((2-(((3R,4S)-3-fluorotetrahydro-2H-pyran-4-yl)amino)pyridin-4-yl)methyl)-5,5-dimethyl-3-(4-((trifluoromethyl)sulfonyl)phenyl) imidazolidine-2,4-dione] |
| ≤ 500 | CC1(C)C(=O)N(c2ccc3c(c2)N(C(=O)C2CC2)CC32CCC2)C(=O)N1Cc1ccnc(N[C@H]2CCOC2)c1 [Compound 236, (S)-3-(1′-(cyclopropanecarbonyl)spiro [cyclobutane-1,3′-indolin]-6′-yl)-5,5-dimethyl-1-((2-((tetrahydrofuran-3-yl)amino)pyridin-4-yl)methyl)imidazolidine-2,4-dione] |
| 500 to 2000 | CC1(C)C(=O)N(c2ccc(C3(C#N)CC3)c(F)c2)C(=O)N1Cc1ccnc2c1CC(=O)N2 [Compound 71, 1-(4-(4,4-dimethyl-2,5-dioxo-3-((2-oxo-2,3-dihydro-1H-pyrrolo[2,3-b]pyridin-4-yl)methyl)imidazolidin-1-yl)-2-fluorophenyl)cyclopropane-1-carbonitrile] |
| 2000 to 10000 | CN1CCC(Nc2cc(CN3C(=O)N(c4ccc(S(=O)(=O)C(F)(F)F)cc4)C(=O)C3(C)C)ccn2)CC1=O (centres unmarked) [Compound 326, 5,5-dimethyl-1-((2-((1-methyl-2-oxopiperidin-4-yl)amino)pyridin-4-yl)methyl)-3-(4-((trifluoromethyl)sulfonyl)phenyl) imidazolidine-2,4-dione] |
| ≤ 500 | CC1(C)C(=O)N(c2ccc(S(=O)(=O)C(F)(F)F)cc2)C(=O)N1Cc1ccnc(N[C@H]2CCOC2)c1 [Compound 320, (S)-5,5-dimethyl-1-((2-((tetrahydrofuran-3-yl)amino)pyridin-4-yl)methyl)-3-(4-((trifluoromethyl)sulfonyl)phenyl) imidazolidine-2,4-dione] |
| 500 to 2000 | C[C@@H](CC#N)Nc1cc(CN2C(=O)N(c3ccc(S(=O)(=O)C(F)(F)F)cc3)C(=O)C2(C)C)ccn1 [Compound 321, (S)-3-((4-((5,5-dimethyl-2,4-dioxo-3-(4-((trifluoromethyl)sulfonyl)phenyl)imidazolidin-1-yl)methyl)pyridin-2-yl)amino)butanenitrile] |
| ≤ 500 | CC1(C)C(=O)N(c2ccc(C3(C(F)(F)F)CC3)cc2)C(=O)N1Cc1ccnc(NCc2cn[nH]c2)c1 [Compound 171, 1-((2-(((1H-pyrazol-4-yl)methyl)amino)pyridin-4-yl)methyl)-5,5-dimethyl-3-(4-(1-(trifluoromethyl)cyclopropyl)phenyl) imidazolidine-2,4-dione] |
